Experimental data as given in patent US20030027765A1, “Therapeutic peptides having a motif that binds specifically to non-acetylated H3 and H4 histones for cancer therapy” (priority 2000, published 2003).
“Also recorded” adds a separate entry of the source.

Tests used:
[1] = target: T1, deacetylated H4 N-terminal tail (Homo sapiens, UniProt P62805); test: in vitro immuno-binding assay, deacetylated H4; settings: for binding to deacetylated H4 N-terminus: FIG. 9
T1 construct: using acetylated and deacetylated forms of the H4 N-terminal tail

[2] = system: murine embryo fibroblast cells; test: exogenous application of lunasin to growth media, immunostaining; format: cell-based
Source text: (§1) Lunasin contains the cell adhesion motif RGD (arg-gly-asp). […] However, at this stage of mitosis, kinetochore assembly and spindle fiber attachment to centromeres had already transpired.

C3H cells = test: lunasin treatment followed by E1A oncogene transfection (apoptosis); format: cell-based, murine; settings: 20 h after transfection
Source text: As a negative control, E1A with deleted conserved region 1 (E1AΔCR1) that abolishes the RB binding domain was likewise used in the transfection experiments (D. Trouche, T. Kouzidares, Proc. Natl. Acad. Sci., USA, vol. 93, 1439 (1996)).

histone H3 [3] = test: histone H3 acetylation in Na-butyrate treated MCF-7 cells (immunoblot); format: cell-based, human
Source text: (§2) Deacetylated histones are substrates for histone acetylation and for chromatin remodelling which has been associated with eukaryotic transcriptional regulatory mechanisms (K Struhl, Genes Dev., vol. 12, 599,1998; M. Grunstein, Nature, vol. 389,349, 1997).

histone H3 [4] = test: histone H3 acetylation in Na-butyrate treated C3H cells (immunoblot); format: cell-based, murine
Source text: as §2

[5] = system: mice embryo fibroblast cells (C3H 10T½); test: cell adhesion assay with synthetic lunasin peptides; format: cell-based; settings: C3H 10T½ cells, FIG. 2
Source text: as §1

tetra-acetylated H4 = target: T2, tetra-acetylated H4 (Homo sapiens, UniProt P62805); test: in vitro immuno-binding assay, tetra-acetylated H4; settings: FIG. 9
T2 construct: using acetylated and deacetylated forms of the H4 N-terminal tail

C3H 10 T½ cells = test: cell transformation assay (carcinogen-induced foci formation); format: cell-based, murine; settings: FIG. 6, FIG. 12
[6] = target: deacetylated H4 N-terminal tail peptide; test: in vitro immuno-binding assay, increasing dose of deacetylated H4 peptide (FIG. 10)
[7] = target: histone H3 in MCF-7 cells (human)
histone H4 [8] = target: T3, histone H4 (Homo sapiens, UniProt P62805); test: histone H4 acetylation in Na-butyrate treated MCF-7 cells (immunoblot); format: cell-based; settings: absence of lunasin
T3 construct: endogenous in cells; host or cells: MCF-7
Source text: as §2

histone H4 [9] = target: T4, histone H4 (Mus musculus, UniProt P62806); test: histone H4 acetylation in Na-butyrate treated C3H cells (immunoblot); format: cell-based, murine; settings: absence of lunasin
T4 construct: endogenous in cells; host or cells: C3H 10T1/2 mouse embryo fibroblasts
Source text: as §2

[10] = treated with lunasin for 24 h, then E1Awt

With “trLunasin-del: 10 amino acid peptide fragment spanning a helical domain upstream of the poly-aspartyl carboxyl end of lunasin (EKHIMEKIQG; Glycine max; trLunasin-del)” the “binding affinity to deacetylated H4 relative to NLS-trLunasin” value ([1]; FIG. 10) was “significantly higher affinity”.

For “Ser-Lys-Trp-Gln-His-Gln-Gln-Asp-Ser-Cys-Arg-Lys-Gln-Leu-Gln-Gly-Val-Asn-Leu-Thr-Pro-Cys-Glu-Lys-His-Ile-Met-Glu-Lys-Ile-Gln-Gly-Arg-Gly-Asp -Asp-Asp-Asp-Asp-Asp-Asp-Asp-Asp [Lunasin]”, the internalization into cells ([2]; applied exogenously to the growth media, FIG. 3) was “became internalized”, the “chromosomal binding site of internalized peptide” value ([2]; applied exogenously, metaphase) was “preferentially binding to the telomeres of chromosomes during metaphase” and the “effect on cell division and proliferation” value ([2]; exogenous application) was “did not affect cell division and proliferation”. For the same compound, the “effect on kinetochore assembly” value ([2]; internalized lunasin) was “did not affect kinetochore assembly”, the “cell state after E1A-ΔCR1 transfection” value (C3H cells; presence of lunasin) was “normally dividing cells” and the “Annexin V staining of non-adherent cells (apoptosis)” value (C3H cells; [10]) was “positive fluorescent staining for Annexin V-HITC”. For the same compound, the “cell state after E1Awt transfection” value (C3H cells; [10]) was “preponderance of non-adherent cells”, the “reduction of H3 acetylation” value (histone H3 [3]; MCF-7 cells, lunasin added prior to Na-butyrate treatment) was 4 fold and the “acetylated H3 on immunoblots of acid-extracted proteins” value (histone H3 [3]; Na-butyrate treated MCF-7 cells pretreated with 1 μM lunasin, FIG. 13) was “significant reduction”. For the same compound, the “Na-butyrate-induced increase in H3 acetylation upon addition of lunasin” value (histone H3 [4]; C3H cells) was “no observed increase”, the “acetylated H3 on immunoblots of acid-extracted proteins” value (histone H3 [4]; Na-butyrate treated C3H cells pretreated with 1 μM lunasin, FIG. 13) was “significant reduction” and the “cell adhesion to C3H cells” value [5] was “adhered to C3H cells in a dose-dependent manner”.

For “Lunasin-GRG: lunasin with deleted RGD motif (SKWQHQQDSCRKQLQGVNLTPCEKHIMEKIQGDDDDDDDD)”, the “binding to deacetylated H4 N-terminus” value [1] was “high affinity”, the “binding to tetra-acetylated H4” value (tetra-acetylated H4) was “not to the tetra-acetylated H4” and the “cell adhesion to C3H cells” value [5] was “prevented cell adhesion”.

For “NLS-trLunasin: truncated lunasin peptide with the helix substituted by a nuclear localization sequence (NLS) (LEEKQKKKMEKEQGRGDDDDDDDDD; Glycine max; NLS-trLunasin)”, the “binding to deacetylated H4 N-terminus” value [1] was “loss of binding to deacetylated H4”.

With “trLunasin: truncated lunasin that contains only the reactive carboxyl end of the peptide (EKHIMEKIQGRGDDDDDDDDD; Glycine max; trLunasin)” the “binding affinity to deacetylated H4 relative to trLunasin-del” value [1] was “not significantly different”, the “binding to deacetylated H4 N-terminus” value [1] was “significant reduction in deacetylated H4 binding; also recorded: lower binding affinity” and the “anti-transformation property / efficacy in preventing foci transformation” value (C3H 10 T½ cells) was “reduced efficacy”.

Lunasin peptide was tested, and the binding against trLunasin-del [6] was 3 x and the acetylated H3 on immunoblots of acid-extracted proteins, Na-butyrate treated MCF-7 cells [7] was 4 fold.

With CCCC(=O)[O-].[Na+] [Na-butyrate, reference compound] the “increase of H3 acetylation” value (histone H3 [3]; MCF-7 cells, Na-butyrate treatment) was “around 400 fold”, the “increase of histone H4 acetylation” value (histone H4 [8]) was 200 fold and the “increase of histone H4 acetylation” value (histone H4 [9]) was 200 fold. For the same compound, the “increase of H3 acetylation” value (histone H3 [4]; C3H cells, Na-butyrate treatment) was 100 fold.
